Data from the NIST ThermoML archive (doi:10.1007/s10765-007-0151-9).
Values joined by “and” are separate entries in the source; they are usually repeats but may differ in a detail not shown here. Equal entries are not always repeated. ± gives the expanded uncertainty stated by the source.

Settings: 101.33 kPa, Liquid, Pulse-echo method

`[Sn]` [tin] gave a speed of sound (608 K) of 2470 ± 41 m/s, a speed of sound (804 K) of 2408 ± 40 m/s and a speed of sound (814 K) of 2416 ± 40 m/s. It also gave a speed of sound (919 K) of 2379 ± 39 m/s, a speed of sound (1012 K) of 2366 ± 39 m/s and a speed of sound (1025 K) of 2332 ± 38 m/s. The speed of sound (1218 K) was 2306 ± 38 m/s, the speed of sound (1453 K) was 2234 ± 37 m/s and the speed of sound (1463 K) was 2242 ± 37 m/s.

With `[Pb]` [lead] the speed of sound (610 K) was 1834 ± 30 m/s, the speed of sound (626 K) was 1810.5 ± 30 m/s and the speed of sound (678 K) was 1790.3 ± 29 m/s. It also gave a speed of sound (703 K) of 1784 ± 29 m/s, a speed of sound (787 K) of 1769.8 ± 29 m/s and a speed of sound (814 K) of 1749 ± 29 m/s. The speed of sound (897 K) was 1729.8 ± 28 m/s and the speed of sound (1078 K) was 1688 ± 28 m/s.

In the case of `[Ge]` [germanium], the speed of sound (1216 K) is reported as 2690.9 ± 44 m/s and 2689.9 ± 44 m/s, the speed of sound (1233 K) is reported as 2690.8 ± 44 m/s and 2691.1 ± 44 m/s and the speed of sound (1252 K) is reported as 2689.5 ± 44 m/s and 2696.2 ± 44 m/s. The speed of sound (1270 K) was 2692 ± 44 m/s and 2695 ± 44 m/s, the speed of sound (1289 K) was 2690.8 ± 44 m/s and 2700.4 ± 44 m/s and the speed of sound (1307 K) was 2690.6 ± 44 m/s and 2695 ± 44 m/s. For the same compound, the speed of sound (1352 K) was 2673.6 ± 44 m/s and 2678.4 ± 44 m/s, the speed of sound (1398 K) was 2662.8 ± 44 m/s and 2666.3 ± 44 m/s and the speed of sound (1443 K) was 2652.5 ± 44 m/s and 2654.4 ± 44 m/s.

`[Si]` [silicon] gave a speed of sound (1723 K) of 3916.1 ± 64 m/s, a speed of sound (1748 K) of 3929 ± 64 m/s and a speed of sound (1755 K) of 3945.9 ± 65 m/s. The speed of sound (1789 K) was 3973.3 ± 65 m/s, the speed of sound (1795 K) was 3969 ± 65 m/s and the speed of sound (1823 K) was 3976.3 ± 65 m/s. The speed of sound (1852 K) was 4003 ± 66 m/s and the speed of sound (1889 K) was 4020 ± 66 m/s.
